Assay type in all cases: cell-based
The test system of one test is NF-κB. Put plainly: Immunological activity test: inhibition of NF-κB activity. Conditions: initial concentration of 30 μM; a/b isomers given as first/second symbol; read-out: IC50 (μM), inhibitory activity against NF-κB. The method, boiled down: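 Compounds were first screened for inhibition of NF-κB activity at 30 μM, with parthenolide as the positive control. IC50 values were then determined for the compounds by further analysis of the assay data.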

Test [1] has as its system human lung fibroblasts HFL1. As to the kind of experiment: Anti-fibrosis activity test: inhibition of proliferation of human lung fibroblasts HFL1 (CCK-8). Conditions: Homo sapiens, HFL1, 48 h, human lung fibroblasts HFL1, CCK-8, 48 hours. In short, it runs like this:
(§1)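 Cells were seeded at 2×10^4 cells/mL and allowed to adhere for 24 h at 37° C, 5% CO2, then exposed to graded compound concentrations in triplicate for 48 h. CCK-8 was added for 2 h, A450 was read, and IC50 was derived from inhibition rate = (1−Ai/Ao)×100%.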

In test [2] the test system is mouse macrophages (RAW264.7). Put plainly: Lipopolysaccharide-induced NO secretion in macrophages (Griess). Conditions: Mus musculus, RAW264.7, 24 h, RAW264.7, LPS 1 μg/ml, a/b isomers given as first/second symbol, read-out: IC50 (μM), inhibition of lipopolysaccharide-induced NO secretion in macrophages. The method, boiled down:
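RAW264.7 cells in DMEM with 10% FBS were treated with test compounds at several concentrations, then stimulated with LPS (1 μg/ml) for 24 hours. Nitrite in the supernatant was measured by Griess reaction at 548 nm, and percent inhibition was calculated against blank-medium controls.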
For orientation: Nitrite, measured by Griess reagent, commonly stands in for NO production.

The next test concerns BHK-21 cells. As to the kind of experiment: Anti-fibrosis activity test: inhibition of BHK-21 cell proliferation (CCK-8). Conditions: Mesocricetus auratus, BHK-21, 48 h, CCK-8, 48 hours after administration. In short, it runs like this:
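Proliferation of BHK-21 cells is measured by CCK-8 at 450 nm following 48 h compound exposure at several concentrations. Inhibition is expressed relative to blank control and IC50 is computed from it.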

Test [3] relates to human embryonic lung fibroblast IMR-90. Put plainly: Anti-fibrosis activity test: inhibition of proliferation of human embryonic lung fibroblast IMR-90 (CCK-8). Conditions: human embryonic lung fibroblast IMR-90, CCK-8, 48 hours. The method, boiled down: as §1
Test [4] relates to human dermal fibroblasts CCC-ESF-1. As to the kind of experiment: Anti-fibrosis activity test: inhibition of proliferation of human dermal fibroblasts CCC-ESF-1 (CCK-8). Conditions: Fibroblast; human dermal fibroblasts CCC-ESF-1, CCK-8, 48 hours. The method, boiled down:
as §1

In test [5] the test system is cardiac fibroblast RAT-iCell-C002. As to the kind of experiment: Anti-fibrosis activity test: inhibition of proliferation of cardiac fibroblast RAT-iCell-C002 (CCK-8). Conditions: Cardiac fibroblast, 48 h, cardiac fibroblast RAT-iCell-C002, CCK-8, 48 hours. The method, boiled down:
as §1

For test [6], the system named is human hepatic stellate cells LX-2. Put plainly: Anti-fibrosis activity test: inhibition of proliferation of human hepatic stellate cells LX-2 (CCK-8). Conditions: Homo sapiens, 48 h, human hepatic stellate cells LX-2, CCK-8, 48 hours. In short, it runs like this:
as §1

In test [7] the test system is human fibrosarcoma cells HT-1080. As to the kind of experiment: Anti-fibrosis activity test: inhibition of proliferation of human fibrosarcoma cells HT-1080 (CCK-8). Conditions: Homo sapiens, HT-1080, 48 h, human fibrosarcoma cells HT-1080, CCK-8, 48 hours. The method, boiled down: as §1

One may read the IC50 as the midpoint of a concentration-inhibition curve. With `O=C1c2c(n(Cc3c(Cl)cccc3Cl)c3ccccc3c2=O)-c2cccn21` [Compound 614a, 4-(2,6-Dichlorobenzyl)-9H-pyrrolizino[1,2-b]quinoline-9,10(4H)-dione], the IC50 with NF-κB was in the range of 1 to 10 µM; in [1], 0.05 to 5 mM; in test [2] it was 10 to 50 µM; in the test with BHK-21 cells, 0.05 to 5 mM; in [3] it was 0.05 to 5 mM; in [4] it was 0.05 to 5 mM. Moreover, the figures for the IC50 in [5], in [6] and in test [7] were 0.05 to 5 mM, 0.05 to 5 mM and < 0.05 mM, respectively.
For the compound `O=C1c2c(nc3ccccc3c2OCc2c(Cl)cccc2Cl)-c2cccn21` [Compound 614b, 9-((2,6-dichlorobenzyl)oxy)-10H-pyrrolizino[1,2-b]quinolin-10-one], the IC50 lay in the range of 1 to 10 µM in the test with NF-κB; 0.05 to 5 mM in test [1]; 10 to 50 µM in [2]; 0.05 to 5 mM with BHK-21 cells; 0.05 to 5 mM in test [3]; 0.05 to 5 mM in [4]. For the same compound, the IC50 in [5], in test [6] and in test [7] was 0.05 to 5 mM throughout.
For `O=C1c2c(n(Cc3c(F)cccc3F)c3ccccc3c2=O)-c2cccn21` [Compound 615a, 4-(2,6-Difluorobenzyl)-9H-pyrrolizino[1,2-b]quinoline-9,10(4H)-dione], the IC50 in the test with NF-κB lay in the range of 0.1 to 1 µM; in test [1], 0.05 to 5 mM; in test [2], 10 to 50 µM; with BHK-21 cells, 0.05 to 5 mM; in test [3] it was 0.05 to 5 mM; in [4], 0.05 to 5 mM. The IC50 in test [5], in [6] and in test [7] was 0.05 to 5 mM each time.
Turning to `O=C1c2c(nc3ccccc3c2OCc2c(F)cccc2F)-c2cccn21` [Compound 615b, 9-((2,6-difluorobenzyl)oxy)-10H-pyrrolizino[1,2-b]quinolin-10-one], the IC50 in the test with NF-κB fell in the range of 10 to 50 µM; in [1] it was 0.05 to 5 mM; in test [2], 10 to 50 µM; with BHK-21 cells, 0.05 to 5 mM; in test [3] it was 0.05 to 5 mM; in [4], 0.05 to 5 mM. Besides, the IC50 in [5], in test [6] and in [7] was 0.05 to 5 mM in each case.
For `N#Cc1ccc(F)cc1Cn1c2c(c(=O)c3ccccc31)C(=O)n1cccc1-2` [Compound 616a, 2-((9,10-Dioxo-9H-pyrrolizino[1,2-b]quinolin-4(10H)-yl)methyl)-4-fluorobenzonitrile], the IC50 with NF-κB lay within 0.1 to 1 µM; in [1], 0.05 to 5 mM; in [2], 10 to 50 µM; in the test with BHK-21 cells it was 0.05 to 5 mM; in test [3] it was 0.05 to 5 mM; in test [4], 0.05 to 5 mM. In addition, the IC50 in [5], in [6] and in test [7] was 0.05 to 5 mM in each case.
For `N#Cc1ccc(F)cc1COc1c2c(nc3ccccc13)-c1cccn1C2=O` [Compound 616b, 4-fluoro-2-(((10-oxo-10H-pyrrolizino[1,2-b]quinolin-9-yl)oxy)methyl)benzonitrile], the IC50 with NF-κB lay in the range of 10 to 50 µM; in [1], 0.05 to 5 mM; in test [2], 1 to 10 µM; in the test on BHK-21 cells, 0.05 to 5 mM; in test [3] it was 0.05 to 5 mM; in test [4], 0.05 to 5 mM. Further, the IC50 in test [5], in test [6] and in test [7] was 0.05 to 5 mM each time.
In the case of `N#Cc1ccccc1-c1ccc(Cn2c3c(c(=O)c4ccccc42)C(=O)n2cccc2-3)cc1` [Compound 648a, 4′-((9,10-Dioxo-9H-pyrrolizino[1,2-b]quinolin-4(10H)-yl)methyl)-[1,1′-biphenyl]-2-carbonitrile], the IC50 lay in the range of 1 to 10 µM in the test with NF-κB; 0.05 to 5 mM in [1]; 10 to 50 µM in test [2]; 0.05 to 5 mM in the test on BHK-21 cells; 0.05 to 5 mM in test [3]; 0.05 to 5 mM in test [4]. For the same compound, the IC50 in test [5], in test [6] and in [7] was 0.05 to 5 mM each time.
`N#Cc1ccccc1-c1ccc(COc2c3c(nc4ccccc24)-c2cccn2C3=O)cc1` [Compound 648b, 4′-(((10-oxo-10H-pyrrolizino[1,2-b]quinolin-9-yl)oxy)methyl)-[1,1′-biphenyl]-2-carbonitrile]: the IC50 with NF-κB lay within 1 to 10 µM; in test [1], 0.05 to 5 mM; in test [2] it was 10 to 50 µM; with BHK-21 cells, 0.05 to 5 mM; in [3], 0.05 to 5 mM; in test [4], 0.05 to 5 mM. Also, the IC50 in test [5], in [6] and in test [7] was 0.05 to 5 mM throughout.
Turning to `O=C1c2c(n(Cc3ccc(-c4ccccc4)cc3)c3ccccc3c2=O)-c2cccn21` [Compound 649a, 4-([1,1′-Biphenyl]-4-ylmethyl)-9H-pyrrolizino[1,2-b]quinoline-9,10(4H)-dione], the half-maximal inhibitory concentration (IC50) in the test on NF-κB lay in the range of 0.1 to 1 µM; in [1] it was 0.05 to 5 mM; in [2], 10 to 50 µM; in the test on BHK-21 cells, 0.05 to 5 mM; in [3], 0.05 to 5 mM; in test [4], 0.05 to 5 mM. Further, the IC50 in [5], in test [6] and in test [7] was 0.05 to 5 mM in each case.
For the compound `O=C1c2c(nc3ccccc3c2OCc2ccc(-c3ccccc3)cc2)-c2cccn21` [Compound 649b, 9-([1,1′-biphenyl]-4-ylmethoxy)-10H-pyrrolizino[1,2-b]quinolin-10-one], the IC50 in the test on NF-κB fell in the range of 10 to 50 µM; in test [1], 0.05 to 5 mM; in [2], 10 to 50 µM; in the test with BHK-21 cells, 0.05 to 5 mM; in test [3] it was 0.05 to 5 mM; in test [4], 0.05 to 5 mM. The IC50 in test [5], in test [6] and in [7] was 0.05 to 5 mM each time.
On to `CS(=O)(=O)n1c2c(c(=O)c3ccccc31)C(=O)n1cccc1-2` [Compound 650a, 4-(Methylsulfonyl)-9H-pyrrolizino[1,2-b]quinoline-9,10(4H)-dione], for which the IC50 in the test on NF-κB is 1 to 10 µM; in test [1], 0.05 to 5 mM; in test [2], 1 to 10 µM; in the test on BHK-21 cells it was < 0.05 mM; in [3] it was 0.05 to 5 mM; in test [4], 0.05 to 5 mM. In addition, the IC50 in test [5], in [6] and in test [7] was 0.05 to 5 mM throughout.
`CS(=O)(=O)Oc1c2c(nc3ccccc13)-c1cccn1C2=O` [Compound 650b, 10-oxo-10H-pyrrolizino[1,2-b]quinolin-9-yl methanesulfonate]: the IC50 was 1 to 10 µM with NF-κB; 0.05 to 5 mM in test [1]; 1 to 10 µM in test [2]; 0.05 to 5 mM in the test with BHK-21 cells; 0.05 to 5 mM in test [3]; 0.05 to 5 mM in [4]. Further, the IC50 in test [5], in test [6] and in test [7] was 0.05 to 5 mM throughout.
As to `COCCn1c2c(c(=O)c3ccccc31)C(=O)n1cccc1-2` [Compound 652a, 4-(2-Methoxyethyl)-9H-pyrrolizino[1,2-b]quinoline-9,10(4H)-dione], the IC50 in the test with NF-κB was in the range of 1 to 10 µM; in [1], 0.05 to 5 mM; in [2] it was 1 to 10 µM; in the test with BHK-21 cells, 0.05 to 5 mM; in test [3] it was 0.05 to 5 mM; in [4], 0.05 to 5 mM. Further, the IC50 in [5], in test [6] and in [7] was 0.05 to 5 mM each time.
Turning to `COCCOc1c2c(nc3ccccc13)-c1cccn1C2=O` [Compound 652b, 9-(2-methoxyethoxy)-10H-pyrrolizino[1,2-b]quinolin-10-one], the IC50 in the test on NF-κB was in the range of 1 to 10 µM; in [1], 0.05 to 5 mM; in [2] it was 1 to 10 µM; in the test with BHK-21 cells it was 0.05 to 5 mM; in test [3] it was 0.05 to 5 mM; in test [4] it was 0.05 to 5 mM. In addition, the IC50 in test [5], in [6] and in test [7] was 0.05 to 5 mM in each case.
With `O=C1c2c(n(CCF)c3ccccc3c2=O)-c2cccn21` [Compound 653a, 4-(2-Fluoroethyl)-9H-pyrrolizino[1,2-b]quinoline-9,10(4H)-dione], the IC50 in the test with NF-κB was in the range of 1 to 10 µM; in [1] it was 0.05 to 5 mM; in test [2] it was 1 to 10 µM; in the test on BHK-21 cells, 0.05 to 5 mM; in test [3] it was 0.05 to 5 mM; in test [4], 0.05 to 5 mM. Moreover, the IC50 in test [5], in test [6] and in [7] was 0.05 to 5 mM throughout.

The values are drawn from patent US11040028B2, “Penicinotam derivative, preparation method and use thereof” (OCEAN UNIVERSITY OF CHINA, priority 2017, dated 2021).
